Like-named read-outs stand apart in the source and are kept apart here.
Tests used:
rat renal tissue = settings: rat kidney, given during ischemia and 5 minutes before reperfusion; cited from earlier work
[1] = system: myocardial ischemia/reperfusion injury; settings: anesthetized rabbits, given during ischemia and 5 minutes prior to reperfusion; cited from earlier work
[2] = system: ischemia/reperfusion injury; settings: pre-ischemic administration; cited from earlier work
[3] = Decomposition kinetics (HNO release) monitored by UV-Vis spectroscopy; type: physicochemical; settings: for half-life: pH 7.4, decomposition half-life, pH 7.4, 37° C., compounds 5, 7-10 not first-order, approximate half-lives; for kO2/kAr: ratio of oxygen-dependent to argon decomposition rate, 0.1 M PBS pH 7.4, 37° C.
Method: The decomposition rates of the compounds may be determined by UV-Vis spectroscopy.
The decomposition of compounds 1-4 and 6 from Example 1 was monitored by UV-Vis spectroscopy in 0.1 M PBS buffer at pH 7.4 and 37° C. The spectral behavior was isosbestic and the time course fit well to a single exponential. […] Decomposition kinetics for compounds 5, 7-10 of Example 1 are not first-order and thus only approximate half-lives are reported. Compounds with more than one number in a single column in the table below indicates the results of two experiments for the same compound.

[4] = aerated 0.1 M PBS buffer, aerated 0.1 M PBS buffer, read-out: t1/2 (air)
[5] = argon-saturated 0.1 M PBS buffer, argon-saturated 0.1 M PBS buffer, read-out: t1/2 (Ar)

SMILES	neutrophil infiltration into renal tissue (rat renal tissue)	effect on myocardial ischemia/reperfusion injury [1]	effect on ischemia/reperfusion injury [2]	half-life [3, 4] [min]	half-life [3, 5] [min]	kO2/kAr [3]	melting point
[Na+].[Na+].[O-][N+]([O-])=NO [AS, sodium dioxotrinitrate]	contributed to neutrophil infiltration into the tissue	increased myocardial ischemia/reperfusion injury	prevent or reduce ischemia/reperfusion injury				
O=S(=O)(NO)c1ccccc1F [Compound 1, 2-Fluoro-N-hydroxybenzenesulfonamide]				2.67	17.5	5.82	127 to 129 °C
O=S(=O)(NO)c1ccccc1Cl [Compound 2, 2-Chloro-N-hydroxybenzenesulfonamide]				1.75	3.61	1.06	152 to 155 °C (dec.)
O=S(=O)(NO)c1ccccc1Br [Compound 3, 2-Bromo-N-hydroxybenzenesulfonamide]				0.68	1.05	0.55	156 to 159 °C (dec.)
O=S(=O)(NO)c1ccccc1C(F)(F)F [Compound 4, 2-(Trifluoromethyl)-N-hydroxybenzenesulfonamide]				0.55	0.96	0.75	124 to 127 °C (dec.)
O=S(=O)(NO)c1cc(Cl)sc1Cl [Compound 6, 2,5-Dichlorothiophene-3-sulfohydroxamic acid]						2.52	
O=S(=O)(NO)c1ccc(F)cc1 [Compound 7, 4-Fluoro-N-hydroxybenzenesulfonamide]				10	72.1		
O=S(=O)(NO)c1ccc(C(F)(F)F)cc1 [Compound 8, 4-(Trifluoromethyl)-N-hydroxybenzenesulfonamide]				7	33		117 to 121 °C (dec.)
N#Cc1ccc(S(=O)(=O)NO)cc1 [Compound 9, 4-Cyano-N-hydroxybenzenesulfonamide]				4	17.8		151 to 155 °C (dec.)
O=[N+]([O-])c1ccc(S(=O)(=O)NO)cc1 [Compound 10, 4-Nitro-N-hydroxybenzenesulfonamide]				3.3			
CC(C)N[N+]([O-])=N[O-].[Na+] [isopropylamine/NO]			prevent or reduce ischemia/reperfusion injury				
